The values that follow come from patent US5698535A, “SIN-1A cyclodextrin inclusion complexes” (priority 1994, dated 1997).

The conditions of data set [1]: prior art; cited from earlier work.
For data set [2], the system named is human platelet rich plasma. In words: Inhibition of U46619 induced platelet aggregation in human citrate platelet rich plasma. The format is cell-based. The protocol: (§1) The platelet aggregation was studied in rabbit and human platelet rich plasma (J. Cardiovasc. Pharmacol. 14 suppl. 11; page 120, 1989). In each batch of platelet rich rabbit plasma 8 dose response curves were registered with the thromboxane mimetic U-46619 (0.25-4.0 μM) in the presence of 0, 10^-7, 10^-6 or 10^-5 moles of SIN-1A/βCD complex. The dose response curves were performed in random sequence.
Both amplitude and slope of the aggregation curve were evaluated.

For data set [3], the system named is rabbit platelet rich plasma. In words: Inhibition of U-46619 induced platelet aggregation in rabbit platelet rich plasma. The format is cell-based. The protocol: as §1
The conditions of data set [4]: known; SIN-1 in solid state, SIN-1A open-chain tautomer; cited from earlier work.

Read-outs that look alike come from different tables or passages of the source.

Take `CCN(CC)N(O)N=O` [DEANO, diethylamine-nitric oxide adduct]: the half-life entry in data set [1] is recorded as “about 2 minutes”.

For the compound `N=c1c[n+](N2CCOCC2)[n-]o1` [SIN-1, 3-morpholino-sydnonimine], the IC50 is 15.8 µM in data set [2] (Table 4, amplitude of aggregation curve, read-out: pD2, 50% inhibition of aggregation, amplitude (converted)); 14.1 µM in data set [2] (Table 4, slope of aggregation curve, read-out: pD2, 50% inhibition of aggregation, slope (converted)); 2690 nM in data set [3] (Oryctolagus cuniculus, rabbit platelet rich plasma, U46619 4 μM, n=7, read-out: pD2 (negative logarithm of concentration producing 50% inhibition) (converted)).

Regarding `N#CCN(N=O)N1CCOCC1` [SIN-1A, N-morpholino-N-nitrosoaminoacetonitrile], in data set [4], the stability entry is “extremely unstable”.

Take `NCCCNCCCCN(CCCN)N(O)N=O` [SPNO]: in data set [1], the half-life is 39 min. For `CCCCCC(O)/C=C/C1C2CC(CO2)C1C/C=C\CCCC(=O)O` (stereo not shown) [U46619], the “induction of platelet aggregation” value in data set [3] (thromboxane mimetic) was “concentration-related aggregation”.
